Test results: the CheMixHub ionic liquid set
± gives the uncertainty stated by the source.

Assay: xn = mol fraction of the nth substance listed
Conditions: 101 kPa

Compound CCCCCCCCCCCC[N+](C)(C)Cc1ccccc1.[Cl-] + CC(C)[C@H](NC(=O)CN)C(=O)O + O has an electrical conductivity (293.15 K, x2 = 0.0008945, x1 = 0.0002772) of 0.0811 ± 0.0051 S/m, an electrical conductivity (293.15 K, x2 = 0.0008945, x1 = 0.0002957) of 0.0841 ± 0.0053 S/m and an electrical conductivity (293.15 K, x2 = 0.0008945, x1 = 0.0003197) of 0.0879 ± 0.0055 S/m. It also gave an electrical conductivity (293.15 K, x2 = 0.0008946, x1 = 0.0001647) of 0.0603 ± 0.0038 S/m, an electrical conductivity (293.15 K, x2 = 0.0008946, x1 = 0.0001903) of 0.066 ± 0.0041 S/m and an electrical conductivity (293.15 K, x2 = 0.0008946, x1 = 0.0002151) of 0.0707 ± 0.0044 S/m. It also gave an electrical conductivity (293.15 K, x2 = 0.0008946, x1 = 0.0002373) of 0.0746 ± 0.0047 S/m, an electrical conductivity (293.15 K, x2 = 0.0008946, x1 = 0.0002578) of 0.0779 ± 0.0049 S/m and an electrical conductivity (293.15 K, x2 = 0.0008947, x1 = 7.118e-05) of 0.0298 ± 0.0019 S/m. It also gave an electrical conductivity (293.15 K, x2 = 0.0008947, x1 = 9.37e-05) of 0.0378 ± 0.0024 S/m, an electrical conductivity (293.15 K, x2 = 0.0008947, x1 = 0.0001168) of 0.0458 ± 0.0029 S/m and an electrical conductivity (293.15 K, x2 = 0.0008947, x1 = 0.00014) of 0.0533 ± 0.0033 S/m. The electrical conductivity (293.15 K, x2 = 0.0008948, x1 = 4.976e-05) was 0.022 ± 0.0014 S/m, the electrical conductivity (293.15 K, x2 = 0.001798, x1 = 0.0001623) was 0.0582 ± 0.0036 S/m and the electrical conductivity (293.15 K, x2 = 0.001798, x1 = 0.0001897) was 0.0643 ± 0.004 S/m. For the same compound, the electrical conductivity (293.15 K, x2 = 0.001798, x1 = 0.0002152) was 0.0693 ± 0.0044 S/m, the electrical conductivity (293.15 K, x2 = 0.001798, x1 = 0.0002386) was 0.0736 ± 0.0046 S/m and the electrical conductivity (293.15 K, x2 = 0.001798, x1 = 0.0002594) was 0.0773 ± 0.0049 S/m. The electrical conductivity (293.15 K, x2 = 0.001798, x1 = 0.0002777) was 0.0804 ± 0.0051 S/m, the electrical conductivity (293.15 K, x2 = 0.001798, x1 = 0.0002962) was 0.0834 ± 0.0052 S/m and the electrical conductivity (293.15 K, x2 = 0.001798, x1 = 0.0003218) was 0.0878 ± 0.0055 S/m. It also gave an electrical conductivity (293.15 K, x2 = 0.001799, x1 = 4.099e-05) of 0.0199 ± 0.0012 S/m, an electrical conductivity (293.15 K, x2 = 0.001799, x1 = 6.551e-05) of 0.0284 ± 0.0018 S/m and an electrical conductivity (293.15 K, x2 = 0.001799, x1 = 8.875e-05) of 0.0363 ± 0.0023 S/m. The electrical conductivity (293.15 K, x2 = 0.001799, x1 = 0.0001114) was 0.0437 ± 0.0027 S/m, the electrical conductivity (293.15 K, x2 = 0.001799, x1 = 0.000136) was 0.0512 ± 0.0032 S/m and the electrical conductivity (298.15 K, x2 = 0.0008945, x1 = 0.0002772) was 0.0911 ± 0.0057 S/m. For the same compound, the electrical conductivity (298.15 K, x2 = 0.0008945, x1 = 0.0002957) was 0.0945 ± 0.0059 S/m, the electrical conductivity (298.15 K, x2 = 0.0008945, x1 = 0.0003197) was 0.099 ± 0.0062 S/m and the electrical conductivity (298.15 K, x2 = 0.0008946, x1 = 0.0001647) was 0.0672 ± 0.0042 S/m. For the same compound, the electrical conductivity (298.15 K, x2 = 0.0008946, x1 = 0.0001903) was 0.0736 ± 0.0046 S/m, the electrical conductivity (298.15 K, x2 = 0.0008946, x1 = 0.0002151) was 0.0791 ± 0.0049 S/m and the electrical conductivity (298.15 K, x2 = 0.0008946, x1 = 0.0002373) was 0.0834 ± 0.0052 S/m. It also gave an electrical conductivity (298.15 K, x2 = 0.0008946, x1 = 0.0002578) of 0.0874 ± 0.0054 S/m, an electrical conductivity (298.15 K, x2 = 0.0008947, x1 = 7.118e-05) of 0.0334 ± 0.0021 S/m and an electrical conductivity (298.15 K, x2 = 0.0008947, x1 = 9.37e-05) of 0.0423 ± 0.0026 S/m. For the same compound, the electrical conductivity (298.15 K, x2 = 0.0008947, x1 = 0.0001168) was 0.0513 ± 0.0032 S/m, the electrical conductivity (298.15 K, x2 = 0.0008947, x1 = 0.00014) was 0.0596 ± 0.0037 S/m and the electrical conductivity (298.15 K, x2 = 0.0008948, x1 = 4.976e-05) was 0.0246 ± 0.0015 S/m. The electrical conductivity (298.15 K, x2 = 0.001798, x1 = 0.0001623) was 0.0649 ± 0.004 S/m, the electrical conductivity (298.15 K, x2 = 0.001798, x1 = 0.0001897) was 0.0719 ± 0.0045 S/m and the electrical conductivity (298.15 K, x2 = 0.001798, x1 = 0.0002152) was 0.0776 ± 0.0048 S/m. It also gave an electrical conductivity (298.15 K, x2 = 0.001798, x1 = 0.0002386) of 0.0825 ± 0.0051 S/m, an electrical conductivity (298.15 K, x2 = 0.001798, x1 = 0.0002594) of 0.0868 ± 0.0054 S/m and an electrical conductivity (298.15 K, x2 = 0.001798, x1 = 0.0002777) of 0.0903 ± 0.0056 S/m. The electrical conductivity (298.15 K, x2 = 0.001798, x1 = 0.0002962) was 0.0939 ± 0.0058 S/m, the electrical conductivity (298.15 K, x2 = 0.001798, x1 = 0.0003218) was 0.099 ± 0.0061 S/m and the electrical conductivity (298.15 K, x2 = 0.001799, x1 = 4.099e-05) was 0.0223 ± 0.0014 S/m. For the same compound, the electrical conductivity (298.15 K, x2 = 0.001799, x1 = 6.551e-05) was 0.0319 ± 0.002 S/m, the electrical conductivity (298.15 K, x2 = 0.001799, x1 = 8.875e-05) was 0.0406 ± 0.0025 S/m and the electrical conductivity (298.15 K, x2 = 0.001799, x1 = 0.0001114) was 0.0488 ± 0.003 S/m. It also gave an electrical conductivity (298.15 K, x2 = 0.001799, x1 = 0.000136) of 0.0571 ± 0.0035 S/m, an electrical conductivity (303.15 K, x2 = 0.0008945, x1 = 0.0002772) of 0.102 ± 0.0063 S/m and an electrical conductivity (303.15 K, x2 = 0.0008945, x1 = 0.0002957) of 0.106 ± 0.0065 S/m. For the same compound, the electrical conductivity (303.15 K, x2 = 0.0008945, x1 = 0.0003197) was 0.112 ± 0.0069 S/m, the electrical conductivity (303.15 K, x2 = 0.0008946, x1 = 0.0001647) was 0.0747 ± 0.0046 S/m and the electrical conductivity (303.15 K, x2 = 0.0008946, x1 = 0.0001903) was 0.0819 ± 0.0051 S/m. The electrical conductivity (303.15 K, x2 = 0.0008946, x1 = 0.0002151) was 0.0882 ± 0.0055 S/m, the electrical conductivity (303.15 K, x2 = 0.0008946, x1 = 0.0002373) was 0.0932 ± 0.0058 S/m and the electrical conductivity (303.15 K, x2 = 0.0008946, x1 = 0.0002578) was 0.0977 ± 0.006 S/m. The electrical conductivity (303.15 K, x2 = 0.0008947, x1 = 7.118e-05) was 0.0372 ± 0.0023 S/m, the electrical conductivity (303.15 K, x2 = 0.0008947, x1 = 9.37e-05) was 0.0471 ± 0.0029 S/m and the electrical conductivity (303.15 K, x2 = 0.0008947, x1 = 0.0001168) was 0.0569 ± 0.0035 S/m. For the same compound, the electrical conductivity (303.15 K, x2 = 0.0008947, x1 = 0.00014) was 0.0662 ± 0.0041 S/m and the electrical conductivity (303.15 K, x2 = 0.0008948, x1 = 4.976e-05) was 0.0275 ± 0.0017 S/m.
